“And” between values parts separate entries of the source, which are not always exact repeats. Identical values can stand only once. Like-named read-outs stand apart in the source and are kept apart here.
Experiments:
[1] = system: MAIDS mice; assay: in vivo treatment of MAIDS mice, anti-CD3 induced T cell proliferation assessed in lymph node cells; parameters: species or system mouse; conditions: for increase of T cell responses to anti-CD3 versus untreated mice: intraperitoneal in intralipid, 18 to 20 days, rofecoxib 3, celecoxib 20 mg/kg/day
Method: Subsequently, T cell proliferative responses were assessed in vitro in a mixed population of unsorted lymph node mononuclear cells from treated and untreated animals by [^3H]-thymidine incorporation in the absence (columns A) and presence of Rp-8-Br-cAMPS (0.5 or 1.0 mM, columns B and C, respectively). T cell activation was accomplished in all samples by cross-ligation of anti-CD3 (mAb 2C11; 4 μg/ml). Control represents T cell proliferation in uninfected mice. Mean values from triplicate determinations are shown. Cells were cultured for 72 h during which [^3H]-thymidine was included for the last 4 hours;
Subsequently, T cell proliferative responses were assessed in vitro as described for FIG. 16 but without Rp-Br-cAMPs. Control represents T cell proliferation in uninfected mice. Mean values from triplicate determinations are shown (black circles) along with 25 to 75% percentile (boxed areas) and median (line in box). Bars represent range; and
Mean values±standard error of the mean (s.e.m.) from each group are shown. […] Statistics were analysed by Mann-Whitney U test for comparison of two groups of animals and with Wilcoxon Matched Pairs Test for comparison of the same group with two different treatments.
MAIDS mice normally develop an immunoproliferation syndrome with enlarged lymph nodes and spleen.
Parenteral administration was accomplished by intraperitoneally injecting Cox-2 inhibitors formulated in intralipid.

[2] = system: lymph node mononuclear cells from MAIDS and control mice; assay: anti-CD3 induced T cell proliferation in mixed unsorted lymph node cells, compound added in vitro; format: cell-based, mouse
Method: T cell activation was accomplished by cross-ligation of anti-CD3 (mAb 2C11; 4 μg/ml). […] Cells were cultured for 72 h during which [^3H] -thymidine was included for the last 4 h;
T cell activation was accomplished by cross-ligation of anti-CD3 (mAb 2C11; 4 μg/ml). […] Cells were cultured for 72 h during which [^3H ]-thymidine was included for the last 4 h;
The optimal concentration of antibody was titrated carefully in the initial setup and parallel experiments at several different dilutions of antibody was always performed. Proliferation was analyzed by incubating cells for 72 hours during which [^3H]-thymidine (0.4 μCi) was included for the last 4 hours and collected with a cell harvester (Skatron, Sterling, Va., USA) onto glass fiber filters. Incorporated precursor was counted in a scintillation analyzer (Tri-Carb, Packard, Meriden, Conn., USA). cAMP analogs, when used, were added 30 min prior to activation by addition of anti-CD3 antibodies.

[3] = system: MAIDS mice; assay: in vivo treatment of MAIDS mice, lymphoproliferation (spleen and lymph node weight); parameters: species or system mouse; conditions: MAIDS mice 17 weeks post-infection, per os 7 days, 3 mg/kg/day
[4] = target: COX-1 (Cavia porcellus, UniProt H0V9X9); conditions: read-out: COX-1 IC50; guinea pig macrophage model; Engelhart et al. 1995; cited from earlier work
COX-1, sequence (H0V9X9 entry or part of it): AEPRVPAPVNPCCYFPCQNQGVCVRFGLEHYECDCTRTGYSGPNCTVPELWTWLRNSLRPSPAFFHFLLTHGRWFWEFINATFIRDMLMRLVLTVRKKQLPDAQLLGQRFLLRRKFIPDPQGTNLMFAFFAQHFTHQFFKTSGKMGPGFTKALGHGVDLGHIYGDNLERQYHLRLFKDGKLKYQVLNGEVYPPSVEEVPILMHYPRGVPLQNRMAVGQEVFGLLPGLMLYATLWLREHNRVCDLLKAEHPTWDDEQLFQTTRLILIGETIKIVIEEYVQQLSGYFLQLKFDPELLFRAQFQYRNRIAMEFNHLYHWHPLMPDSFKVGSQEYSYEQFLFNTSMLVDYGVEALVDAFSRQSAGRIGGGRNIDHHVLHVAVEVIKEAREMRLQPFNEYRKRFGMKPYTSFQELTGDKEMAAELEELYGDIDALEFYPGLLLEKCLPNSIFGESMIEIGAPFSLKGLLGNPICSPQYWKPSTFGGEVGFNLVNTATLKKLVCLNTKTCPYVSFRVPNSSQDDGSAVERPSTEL

[5] = target: T1, COX-2 (Homo sapiens, UniProt P35354); conditions: cited from earlier work
T1 sequence (P35354 18-604): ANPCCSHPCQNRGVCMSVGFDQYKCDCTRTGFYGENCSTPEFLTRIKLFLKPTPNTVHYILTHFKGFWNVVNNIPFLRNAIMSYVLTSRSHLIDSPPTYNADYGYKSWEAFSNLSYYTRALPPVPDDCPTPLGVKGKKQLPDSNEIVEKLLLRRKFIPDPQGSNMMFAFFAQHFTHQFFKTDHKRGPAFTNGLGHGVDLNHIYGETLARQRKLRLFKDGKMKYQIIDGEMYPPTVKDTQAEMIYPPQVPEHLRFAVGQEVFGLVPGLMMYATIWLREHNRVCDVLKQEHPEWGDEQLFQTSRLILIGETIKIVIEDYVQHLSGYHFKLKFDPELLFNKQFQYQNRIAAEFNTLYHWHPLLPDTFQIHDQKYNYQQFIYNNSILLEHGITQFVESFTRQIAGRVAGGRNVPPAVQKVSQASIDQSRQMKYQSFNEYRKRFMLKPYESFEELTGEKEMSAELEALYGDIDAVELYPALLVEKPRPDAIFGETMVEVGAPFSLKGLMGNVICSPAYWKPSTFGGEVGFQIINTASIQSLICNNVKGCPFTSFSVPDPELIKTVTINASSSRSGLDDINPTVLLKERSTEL

[6] = system: CD3+ T cells from HIV infected patients; assay: proliferation of HIV patient CD3+ T cells with cAMP antagonist added in vitro; format: cell-based, human
From the text: Bars show mean values±SD from triplicate determinations.
8-CPT-cAMP was from Sigma (St. Louis, Mo.).

[7] = system: CD3+ T cells from MAIDS and control mice; assay: TCR/CD3 stimulated proliferation of isolated T cells, [3H]-thymidine incorporation; format: cell-based, mouse
Method: TCR/CD3 stimulated T cell proliferation was assessed with isolated T cells from MAIDS mice (A) and uninfected control mice (B). The effect of increasing concentrations of cAMP agonist (8-CPT-cAMP) on TCR/CD3 stimulated proliferation of CD3+ T cells isolated from MAIDS (open circles, dotted line) and control mice (filled circles and solid line) was examined separately in the same experiments (C). Mean values of triplicate determinations±SD are shown. See Table 4 for summarised data (n=11). Note: Scaling differs in A and B, whereas in C the TCR/CD3 induced proliferation in the absence of cAMP agonist is normalized to 100% for both MAIDS and control T cells;
Activation was achieved by subsequent addition of monodisperse magnetic beads coated with sheep anti-mouse IgG (Dynal, cat. no. 110.02) at a cell:bead ratio of 1:1 followed by addition of anti-CD3 (clone 2C11) at a final dilution of 4 μg/ml for the experiments shown. […] 8-CPT-cAMP was from Sigma (St. Louis, Mo.) and Sp- and Rp-8-Br-cAMPS were from BioLog Life Science Company (Bremen, Germany) and were all dissolved to concentrations of 4 to 10 mM in PBS and concentrations calculated using the extinction coefficients given by the manufacturer.

[8] = target: T2, COX-2 (Cavia porcellus, UniProt P70682); conditions: guinea pig macrophage model; Engelhart et al. 1995; cited from earlier work
T2 construct: NSAID's in guinea pig macrophage model; endogenous in cells; host or cells: guinea pig macrophages
T2 sequence (P70682 18-604): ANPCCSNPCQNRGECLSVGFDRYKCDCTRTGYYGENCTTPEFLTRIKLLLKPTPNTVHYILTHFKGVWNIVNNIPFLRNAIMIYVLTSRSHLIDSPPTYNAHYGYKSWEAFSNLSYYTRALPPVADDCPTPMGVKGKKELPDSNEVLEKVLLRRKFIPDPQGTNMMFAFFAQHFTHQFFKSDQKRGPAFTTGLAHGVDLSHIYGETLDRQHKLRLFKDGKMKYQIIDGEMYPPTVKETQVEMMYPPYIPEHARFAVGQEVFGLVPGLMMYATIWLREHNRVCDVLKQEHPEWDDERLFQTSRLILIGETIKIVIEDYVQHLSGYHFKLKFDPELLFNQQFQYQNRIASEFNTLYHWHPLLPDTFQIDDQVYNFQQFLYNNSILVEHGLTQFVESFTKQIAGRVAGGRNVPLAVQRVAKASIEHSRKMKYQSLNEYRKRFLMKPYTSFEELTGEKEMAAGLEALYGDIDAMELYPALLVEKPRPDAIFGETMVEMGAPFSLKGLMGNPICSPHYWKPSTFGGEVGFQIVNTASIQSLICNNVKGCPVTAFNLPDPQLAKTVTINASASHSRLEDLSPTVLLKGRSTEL

**Q.** Which results are given for CS(=O)(=O)c1ccc(C2=C(c3ccccc3)C(=O)OC2)cc1 [rofecoxib]?
**A.** Rp-8-Br-cAMPS effect on anti-CD3 induced proliferation after in vivo treatment ([1]; MAIDS mice treated per os one week): lost; increase of T cell responses to anti-CD3 versus untreated mice [1]: approximately two-fold; increase of anti-CD3 induced proliferation ([2]; cells from MAIDS mice 17 weeks post-infection, concentration-dependent, 1.9 to 500 nM): two- to three-fold; average spleen weight [3]: 0.8 g; average weight of pooled lymph nodes [3]: 0.3 g

**Q.** What does the source list for Cc1ccc(-c2cc(C(F)(F)F)nn2-c2ccc(S(N)(=O)=O)cc2)cc1 [celecoxib, 4-(5-(4-methylphenyl)-3-(trifluoromethyl)-1H-pyrazol-1-yl)-benzenesulfonamide]?
**A.** increase of T cell responses to anti-CD3 versus untreated mice [1]: approximately 3 fold; EC50 ([2]; Mus musculus, T-cell, read-out: concentration producing half-maximal effect (ED50) on T cell proliferation): ~30 nM

**Q.** What does the source list for Cc1cnc(NC(=O)C2=C(O)c3ccccc3S(=O)(=O)N2C)s1 [Meloxicam, 4-hydroxy-2-methyl-N-(5-methyl-2-thiazolyl)-1,1-dioxide-2H-1,2-benzothiazine-3-carboxamide]?
**A.** increase of T cell immune responses to anti-CD3 versus PBS-treated infected mice ([1]; 2.8 mg/kg/day, subcutaneous osmotic pump, 14 days, p<0.05): more than 10 fold; IC50 [4]: 5.77 nM

**Q.** With CS(=O)(=O)Nc1ccc([N+](=O)[O-])cc1Oc1ccccc1 [nimesulide] as the compound, how does the “Ratio COX-2/WHMA-COX-1 at IC80” value [5] read?
**A.** 0.17

**Q.** Which “Ratio COX-2/WHMA-COX-1 at IC80” value ([5]; WHMA test, Warner et al.) does the source give for CS(=O)(=O)Nc1cc2c(cc1Sc1ccc(F)cc1F)C(=O)CC2 [L-745337] here?
**A.** <0.01

**Q.** With Nc1ncnc2c1nc(Br)n2C1OC2COP(O)(=S)OC2C1O (stereo not drawn) [Rp-8-Br-cAMPS, Rp-8-Bromo-cAMP-phosphorothioate] as the compound, how does the “effect on anti-CD3 stimulated mixed lymph node cultures” value ([2]; MAIDS mice that received PBS in vivo, 0.5 mM) read?
**A.** increased immune responses

**Q.** What about the “effect on proliferation by antagonist in vitro” value ([6]; patient 2, 1 mM) of the same compound?
**A.** no effect

**Q.** What about the “increase in proliferation by antagonist in vitro” value ([6]; patients 1 and 3, all time points, 1 mM) of the same compound?
**A.** approx. 2 fold

**Q.** And the “increase in TCR/CD3-induced proliferation” value ([7]; MAIDS T cells, higher concentrations, FIG. 5A)?
**A.** more than 4 fold

**Q.** What about the “Increase in proliferation by Rp-8-Br-cAMPS” value (“Increase … by Rp-8-Br-cAMPS” for short) ([7]; MAIDS mice, median, n = 11) of the same compound?
**A.** 2.2 fold increase

**Q.** What about the “effect on TCR/CD3-induced proliferation” value ([7]; control T cells, FIG. 5B) of the same compound?
**A.** no stimulation was observed

**Q.** What about the “Increase … by Rp-8-Br-cAMPS” value ([7]; control mice, median, n = 6) of the same compound?
**A.** 1.1 fold increase

**Q.** And the “Increase … by Rp-8-Br-cAMPS” value ([7]; individual MAIDS mice 1-11, anti-CD3 induced proliferation)?
**A.** 14 fold increase and 37 fold increase (3×) and 10 fold increase and 19 fold increase (2×) and 22 fold increase and 42 fold increase and 40 fold increase and 24 fold increase

**Q.** For CN1C(C(=O)Nc2ccccn2)=C(O)c2sccc2S1(=O)=O [Tenoxicam], which IC50 [4] is on record?
**A.** 201 nM

**Q.** And the IC50 [8]?
**A.** 322 nM

Reference: patent US7790738B2, “Methods of treating and preventing AIDS using of COX-2 inhibitors” (Lauras AS, priority 2000, dated 2010)
